Reference: patent US20250276079A1, “COMBINATION OF ANTIBODY-DRUG CONJUGATE WITH EZH1 and/or EZH2 INHIBITOR” (DAIICHI SANKYO COMPANY, LIMITED, priority 2022, published 2025)

What was measured:
Type in all cases: in vivo
[1] = system: Human breast cancer cell line JIMT-1; assay: Antitumor study (2): JIMT-1 subcutaneous xenograft, HER2-ADC (1); details: Day 52; JIMT-1 s.c. in female SCID mice; Compound A feed mix 0.3% Day 14 to Day 42; HER2-ADC (1) 10 mg/kg i.v. Day 18
Procedure: (§1) Measurement and calculation formula: In all studies, the major axis and minor axis of tumors were measured once a week or twice a week with an electronic digital caliper, and the estimated tumor volume (mm^3) was calculated. The calculation formula is as shown below.
(§2) Tumor growth inhibition (TGI) was calculated in accordance with the following calculation formula.
(§3) [formula] • T: Average estimated tumor volume of mice of test substance administration group • C: Average estimated tumor volume of mice of control group
(§4) The HER2-ADC (1) was diluted with ABS buffer (10 mM acetate buffer [pH 5.5], 5% sorbitol), and intravenously administered in a fluid volume of 10 mL/kg to the tail vein. The Compound A was orally administered by a feed mix containing 0.3% of Compound A.
(§5) These methods are common to Examples 5 to 8, and Examples 11 to 16. In Example 12 to Example 16, TROP2-ADC (1), HER3-ADC (1), CD37-ADC (1), or B7-H3-ADC (1) was used in the evaluation. Moreover, the Compound A was orally administered by a feed mix containing 0.25% of Compound A in Example 12 to Example 16.
Human breast cancer cell line JIMT-1, which was purchased from DSMZ (Deutsche Sammlung von Mikroorganismen und Zellkulturen GmbH), was suspended into DPBS and subcutaneously transplanted at 5×10^6 cells into the right side of each female SCID mouse (CLEA Japan, Inc.) (Day 0). […]

[2] = system: Human gastric cancer cell line NCI-N87; assay: Antitumor study (1): NCI-N87 subcutaneous xenograft; details: Day 63; NCI-N87 s.c. in female SCID mice; Compound A feed mix 0.3% Day 6 to Day 34; HER2-ADC (1) 2 mg/kg i.v. Day 10
Procedure: as §1, §2, §3, §4, §5
Human gastric cancer cell line NCI-N87, which was purchased from ATCC (American Type Culture Collection), was suspended into DPBS (Dulbecco's phosphate-buffered saline) and subcutaneously transplanted at 1×10^7 cells into the right side of each female SCID (Severe Combined Immunodeficient) mouse (CLEA Japan, Inc.) (Day 0). […]

[3] = system: Human non-small lung cancer cell line Calu-3; assay: Antitumor study (6): Calu-3 subcutaneous xenograft; details: Day 35; Calu-3 s.c. in female SCID mice; Compound A feed mix 0.3% Day 14 to Day 42; HER2-ADC (1) 1 mg/kg i.v. Day 14
Procedure: as §1, §2, §3, §4, §5
Human non-small lung cancer cell line Calu-3, which was purchased from ATCC (American Type Culture Collection), was suspended into Matrigel matrix and subcutaneously transplanted at 3×10^6 cells into the right side of each female SCID mouse (The Jackson Laboratory Japan, Inc.) (Day 0). […]

[4] = system: Human breast cancer cell line MDA-MB-453; assay: Antitumor study (3): MDA-MB-453 subcutaneous xenograft; details: Day 74; MDA-MB-453 s.c. in female SCID mice; Compound A feed mix 0.3% Day 18 to Day 46; HER2-ADC (1) 1 mg/kg i.v. Day 22
Procedure: as §1, §2, §3, §4, §5
Human breast cancer cell line MDA-MB-453, which was purchased from ATCC, was suspended into 50% Matrigel matrix and subcutaneously transplanted at 1×10^7 cells into the right side of each female SCID mouse (CLEA Japan, Inc.) (Day 0). Eighteen days later, the mice were divided into groups based on estimated tumor volumes. […]

[5] = system: Human non-small lung cancer cell line NCI-H358; assay: Antitumor study (7): NCI-H358 subcutaneous xenograft; details: Day 115; NCI-H358 s.c. in female SCID mice; Compound A feed mix 0.25% Day 24 to Day 66; TROP2-ADC (1) 10 mg/kg i.v. Day 24 and Day 45
Procedure: as §1, §2, §3, §4, §5
Human non-small lung cancer cell line NCI-H358, which was purchased from ATCC (American Type Culture Collection), was suspended into 50% Matrigel matrix and subcutaneously transplanted at 3×10^6 cells into the right side of each female SCID mouse (CLEA Japan, Inc.) (Day 0). […]

[6] = system: Human neuroendocrine prostate cancer cell line NCI-H660; assay: Antitumor study (10): NCI-H660 subcutaneous xenograft; details: Day 58; NCI-H660 s.c. in castrated male SCID mice; Compound A feed mix 0.25% Day 29 to Day 58; B7-H3-ADC (1) 0.3 mg/kg i.v. Day 29 and Day 43
Procedure: as §1, §2, §3, §4, §5
Human neuroendocrine prostate cancer cell line NCI-H660, which was purchased from ATCC (American Type Culture Collection), was suspended into 50% Matrigel matrix and subcutaneously transplanted at 2×10^6 cells into the right side of each castrated male SCID mouse (CLEA Japan, Inc.) (Day 0). […]

[7] = system: Human breast cancer cell line ZR-75-1; assay: Antitumor study (5): ZR-75-1 subcutaneous xenograft; details: Day 49; ZR-75-1 s.c. in female NSG mice (estradiol cypionate weekly); Compound A feed mix 0.3% Day 14 to Day 42; HER2-ADC (1) 5 mg/kg i.v. Day 14
Procedure: as §1, §2, §3, §4
as §5, with “Example 16. […]” for “Example 16.”

[8] = system: Human breast cancer cell line MX-1; assay: Antitumor study (4): MX-1 subcutaneous xenograft; details: Day 51; MX-1 s.c. in female SCID mice; Compound A feed mix 0.3% Day 13 to Day 41; HER2-ADC (1) 3 mg/kg i.v. Day 17
Procedure: as §1, §2, §3, §4, §5
Human breast cancer cell line MX-1, which was purchased from CLS (Cell Lines Service), was suspended into 50% Matrigel matrix and subcutaneously transplanted at 5×10^6 cells into the right side of each female SCID mouse (CLEA Japan, Inc.) (Day 0). […]

[9] = system: Human diffuse large B-cell lymphoma cell line WSU-DLCL2; assay: Antitumor study (9): WSU-DLCL2 subcutaneous xenograft; details: Day 44; WSU-DLCL2 s.c. in female SCID mice; Compound A feed mix 0.25% Day 16 to Day 44; CD37-ADC (1) 1 mg/kg i.v. Day 16
Procedure: as §1, §2, §3, §4, §5
Human diffuse large B-cell lymphoma cell line WSU-DLCL2, which was purchased from DSMZ (Deutsche Sammlung von Mikroorganismen und Zellkulturen GmbH), was suspended into DPBS and subcutaneously transplanted at 1×10^7 cells into the right side of each female SCID mouse (CLEA Japan, Inc.) (Day 0). […]

[10] = system: Human breast cancer cell line JIMT-1; assay: Antitumor study (8): JIMT-1 subcutaneous xenograft, HER3-ADC (1); details: Day 46; JIMT-1 s.c. in female SCID mice; Compound A feed mix 0.25% Day 11 to Day 39; HER3-ADC (1) 10 mg/kg i.v. Day 11
Procedure: as §1, §2, §3, §4, §5
Human breast cancer cell line JIMT-1, which was purchased from DSMZ (Deutsche Sammlung von Mikroorganismen und Zellkulturen GmbH), was suspended into saline and subcutaneously transplanted at 5×10^6 cells into the right side of each female SCID mouse (CLEA Japan, Inc.) (Day 0). […]

SMILES: Cc1cc(C)c(CNC(=O)c2cc(Cl)c3c(c2C)O[C@@](C)([C@H]2CC[C@H](N(C)C)CC2)O3)c(=O)[nH]1 [Compound A, (2R)-7-chloro-2-[trans-4-(dimethylamino)cyclohexyl]-N-[(4,6-dimethyl-2-oxo-1,2-dihydropyridin-3-yl)methyl]-2,4-dimethyl-1,3-benzodioxole-5-carboxamide p-toluene sulfonate]
- Tumor growth inhibition (TGI) [1]: 19%
- Tumor growth inhibition (TGI) [2]: 38%
- Tumor growth inhibition (TGI) [3]: 20%
- Tumor growth inhibition (TGI) [4]: 41%
- Tumor growth inhibition (TGI) [5]: 20%
- Tumor growth inhibition (TGI) [6]: 80%
- Tumor growth inhibition (TGI) [7]: 53%
- Tumor growth inhibition (TGI) [8]: 9%
- Tumor growth inhibition (TGI) [9]: 31%
- Tumor growth inhibition (TGI) [10]: 41%
